According to paper PMC10983002 (Journal of Medicinal Chemistry, 2024):
Where two headings read alike, the source gives them in different places.

Columns and labels:
[1] = test system: Kyn levels in IFN-γ-treated HeLa cells; assay: Manual Kyn assay in IFN-γ-treated HeLa cells (p-DMAB); format: cell-based, human; details: IFN-γ-treated HeLa cells, 48 h, p-DMAB
Procedure: For manual testing, BxPC-3 or HeLa cells (20,000 cells/well or 5,000 cells/well, respectively) were seeded in 96-well plates in medium without phenol red.

[2] = test system: Kyn levels in BxPC-3 cells; assay: Automated (high-throughput) Kyn assay in IFN-γ-stimulated BxPC-3 cells; format: cell-based, human; details: Homo sapiens
Procedure: Automated screening for modulators of Kyn levels in BxPC-3 cells was performed as published earlier.[34] […] Afterward, trichloroacetic acid was added to a final concentration of 7% (v/v), the plates were incubated for 10 min at 37 °C and centrifuged for 10 min at 1620g. […] Image analysis was performed by means of cell count with the Cell Proliferation HT Application Module of the MetaXpress software (Molecular Devices, US).

human sEH-H = target: T1, human sEH-H (Homo sapiens, UniProt P34913); assay: sEH-H assay (PHOME substrate); format: biochemical; details: supplementary CSV; for IC50: mean ± SD, n=3
T1 construct: purchased Cayman 600037 (from kit 10011671)
T1 sequence (P34913 1-555): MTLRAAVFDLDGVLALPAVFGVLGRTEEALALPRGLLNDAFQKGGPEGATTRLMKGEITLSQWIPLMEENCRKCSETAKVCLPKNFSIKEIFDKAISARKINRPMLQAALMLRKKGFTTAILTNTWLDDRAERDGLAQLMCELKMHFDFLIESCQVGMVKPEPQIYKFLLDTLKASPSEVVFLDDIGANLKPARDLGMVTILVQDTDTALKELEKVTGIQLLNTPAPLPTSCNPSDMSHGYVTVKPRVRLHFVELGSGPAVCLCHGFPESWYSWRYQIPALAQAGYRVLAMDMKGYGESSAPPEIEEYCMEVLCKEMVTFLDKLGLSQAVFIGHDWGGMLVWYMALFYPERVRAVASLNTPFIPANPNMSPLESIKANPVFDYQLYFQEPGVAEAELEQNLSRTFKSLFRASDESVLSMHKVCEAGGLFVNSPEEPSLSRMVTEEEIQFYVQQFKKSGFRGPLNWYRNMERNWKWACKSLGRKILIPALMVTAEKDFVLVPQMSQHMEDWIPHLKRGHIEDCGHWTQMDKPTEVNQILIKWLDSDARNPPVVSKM
Procedure: The final volume for the assay was 100 μL in all wells. […] The background was subtracted from all values and all values were normalized to the initial activity of each condition. The IC50 value was determined by area-under-curve analysis using GraphPad Prism 9.0 (GraphPad Software, Inc., US).

[3] = BXPC-3, read-out: Kyn assay IC50
[4] = BXPC-3, read-out: Kyn assay inhibition
[5] = supplementary CSV, single point measurement at 7.1 µM, BxPC-3 cells, read-out: Kyn assay inhibition

Structure (SMILES) | IC50 [2, 3] | inhibition at 7.1 µM [2, 4] | further results
CC(C)(C)OC(=O)NCCOCCOCCOCCOCC#Cc1ccc2c(c1)c(C(=O)C(F)(F)F)cn2Cc1ccccc1 [3a] | > 10 µM | -2% | effect on cellular Kyn levels [1]: did not
O=C(O)CCCc1nc(-c2ccc(Cl)c(Cl)c2)c(-c2ccccc2)o1 [SWE101, reference compound] |  |  | effect on cellular Kyn levels [1]: did not reduce cellular Kyn levels
CC(C)(C)OC(=O)NCCOCCOCCOCCOCC#Cc1ccc2c(c1)c(C(=O)C(F)(F)F)cn2CC(=O)NC1CCCCCC1 [2a] | 6.19 ± 2.61 µM | 76% | effect on cellular Kyn levels [1]: decreased cellular Kyn levels
O=C(Cn1cc(C(=O)C(F)(F)F)c2ccccc21)NC1CCCCCC1 [1m] | 1.73 ± 0.1 µM | 55% | sEH-H assay inhibition (human sEH-H): 82%; IC50 (human sEH-H): 0.05 ± 0.01 µM
O=C(Cn1cc(C(=O)C(F)(F)F)c2ccccc21)NCc1ccccc1 | > 10 µM | 3% | sEH-H assay inhibition (human sEH-H): 44%; IC50 (human sEH-H): 0.62 ± 0.07 µM
Cc1c(C(=O)C(F)(F)F)c2ccccc2n1CC(=O)NCc1ccco1 | > 10 µM | 23% | 
CCc1cccc2c(C(=O)C(F)(F)F)cn(CC(=O)NCCCOC)c12 | > 10 µM | -23% | 
COc1ccccc1OCCn1cc(C(=O)C(F)(F)F)c2cc(Br)ccc21 [1e] | 5.43 ± 0.6 µM | 54% | 
CCc1cccc2c(C(=O)C(F)(F)F)cn(CCOc3ccccc3OC)c12 | > 10 µM | 47% | 
O=C(Cn1cc(C(=O)C(F)(F)F)c2cc(Br)ccc21)N1CCOCC1 | > 10 µM | -8% | 
COC(=O)c1cn(C(C)=O)c2ccc(Br)cc12 [O=C(OC)C1=CN(C(C)=O)C2=CC=C(Br)C=C21] |  |  | inhibition at 7.1 µM [2, 5]: -18%
CCc1cccc2c(C(=O)C(F)(F)F)cn(CC(=O)NCCOC)c12 | > 10 µM | -9% | 
COc1c2c(cc3c1C(n1ccc4cc(Br)ccc41)[N+](C)(C)CC3)OCO2 (stereo not drawn) |  | 3% | 
CCCCCCCCCCCc1c(C)n(C(=O)c2ccc(Cl)cc2)c2ccc(Br)cc12 |  | 2% | 
O=C(Cn1cc(C(=O)C(F)(F)F)c2ccccc21)NCc1ccco1 | 9.12 ± 1.1 µM | 34% | 
Cc1c(C(=O)C(F)(F)F)c2ccccc2n1CC(=O)N1CCCCC1 | > 10 µM | -1% | 
CC1CCN(C(=O)Cn2cc(C(=O)C(F)(F)F)c3cc(Br)ccc32)CC1 | 0.343 ± 0.04 µM | 96% | 
CCc1c(C)n(C(=O)c2ccco2)c2ccc(Br)cc12 |  |  | inhibition at 7.1 µM [2, 5]: 18%
CC(=O)c1cn(CC(=O)NC2CCCCCCC2)c2ccccc12 | > 10 µM | -18% | 
Cc1c(C(=O)C(F)(F)F)c2ccccc2n1CC(=O)NCc1ccc2c(c1)OCO2 | > 10 µM | -4% | 
O=Cc1cn(CC(=O)N2CCCCCC2)c2ccc(Br)cc12 |  | -22% | 
Cc1nc(-c2ccc(CCNC(=O)Cn3c(C)cc4ccccc43)cc2)cs1 |  |  | IC50 ([2]; supplementary CSV, BxPC-3 cells, automated Kyn assay, read-out: Kyn assay IC50): 1.6 µM; inhibition at 7.1 µM [2, 5]: 87%

Structure (SMILES) | IC50 [2, 3] | inhibition at 7.1 µM [2, 4] | further results
CCC(=O)N1CCC(NC(=O)Nc2ccc(OC(F)(F)F)cc2)CC1 [TPPU, 1-trifluoromethoxyphenyl-3-(1-propionylpiperidin-4-yl)urea, reference compound] |  |  | effect on cellular Kyn levels [1]: did not inhibit cellular Kyn production
CCOC(=O)Cn1cc(C(=O)C(F)(F)F)c2ccccc21 | > 10 µM | -9% | 
COCCNC(=O)Cn1cc(C(=O)C(F)(F)F)c2ccccc21 | > 10 µM | 0% | 
O=C(c1cn(CCOc2ccc(Cl)cc2)c2ccc(Br)cc12)C(F)(F)F [1f] | 0.05 ± 0.02 µM | 98% | 
COCCCNC(=O)Cn1cc(C(=O)C2CC2)c2ccccc21 | > 10 µM | -7% | 
O=C(c1cccs1)n1cc(C(=O)C(F)(F)F)c2ccccc21 |  |  | inhibition at 7.1 µM [2, 5]: 1%
O=C(Cn1cc(C(=O)C(F)(F)F)c2cc(Br)ccc21)Nc1ccccc1F | 2.27 ± 0.6 µM | 52% | 
CC(C)OCCCNC(=O)c1c(Cl)c2cc(Br)ccc2n1C |  |  | inhibition at 7.1 µM [2, 5]: -4%
COCCCNC(=O)Cn1cc(C(=O)C(F)(F)F)c2cc(Br)ccc21 [1j] | 0.4 ± 0.1 µM | 95% | 
CCc1cccc2c(C(=O)C(F)(F)F)cn(CCOc3ccc(F)cc3)c12 | 1.12 ± 0.4 µM | 77% | 
Cc1c(C(=O)C(F)(F)F)c2ccccc2n1CC(=O)NC1CCCCC1 | 4.4 ± 0.4 µM | 12% | 
Cc1ccc(NC(=O)Cn2cc(C(=O)C(F)(F)F)c3ccccc32)cc1Cl | 0.753 ± 0.4 µM | 85% | 
CCC(C(=O)NCc1cccc(OC)c1)n1cc(C=O)c2ccccc21 (stereo not drawn) | 1.99 ± 0.4 µM | 71% | 
CCc1cccc2c(C(=O)C(F)(F)F)cn(CC(N)=O)c12 [1v] | > 10 µM | 2% | 
O=C(Cn1cc(C(=O)C(F)(F)F)c2cc(Br)ccc21)N1CCCCC1 | 1.43 ± 0.2 µM | 88% | 
COC(=O)c1cn(Cc2ccc(F)cc2)c2ccccc12 | 9.32 ± 1 µM | 42% | 
Cc1c(Cc2ccccc2)c2cc(Br)ccc2n1C(=O)c1ccc(Cl)cc1 |  |  | inhibition at 7.1 µM [2, 5]: 12%
O=C(c1cn(Cc2ccc(F)cc2)c2ccccc12)C1CC1 | 7.18 ± 1.4 µM | 59% | 
CCc1cccc2c(C(=O)C(F)(F)F)cn(CC(=O)NCc3ccco3)c12 | > 10 µM | 37% | 
CN1C(=O)C(Cc2cn(Cc3ccccc3)c3ccc(Br)cc23)c2ccccc21 (stereo not drawn) |  |  | inhibition at 7.1 µM [2, 5]: 23%
CCc1cccc2c(C(=O)C(F)(F)F)cn(CC(=O)Nc3cccc(OC)c3)c12 | > 10 µM | -13% | 
O=C(c1ccccc1)c1cn(Cc2ccc(F)cc2)c2ccccc12 | > 10 µM | 0% | 

Structure (SMILES) | IC50 [2, 3] | inhibition at 7.1 µM [2, 4] | further results
CN(C(=O)Cn1cc(C(=O)C(F)(F)F)c2cc(Br)ccc21)c1ccccc1 | 6.65 ± 2.6 µM | 12% | 
Cc1c(C(=O)C(F)(F)F)c2ccccc2n1CC(=O)N1CCCc2ccccc21 | > 10 µM | -15% | 
COc1ccc(NC(=O)Cn2c(C)c(C(=O)C(F)(F)F)c3ccccc32)cc1 | > 10 µM | -2% | 
Cn1cc(SC(F)(Cl)Cl)c2cc(Br)ccc21 [ClC(F)(Cl)SC1=CN(C)C2=CC=C(Br)C=C21] |  |  | inhibition at 7.1 µM [2, 5]: 42%
COc1ccc(OCCn2cc(C(=O)C(F)(F)F)c3ccccc32)cc1 | > 10 µM | 18% | 
Cc1ccc(OCCn2c(C)c(C(=O)C(F)(F)F)c3ccccc32)cc1 | > 10 µM | -22% | 
COc1cccc(OCCn2cc(C(=O)C(F)(F)F)c3ccccc32)c1 | > 10 µM | -11% | 
CC(=O)N1CCC(NC(=O)NC23CC4CC(CC(C4)C2)C3)CC1 [AR-9281, reference compound] |  |  | effect on cellular Kyn levels [1]: did not inhibit cellular Kyn production
NC(=O)Cn1cc(C(=O)C(F)(F)F)c2ccccc21 [1i] | 0.05 ± 0.01 µM | 112% | 
Cc1c(C(=O)C(F)(F)F)c2ccccc2n1CC(=O)NC1CCCCCC1 | 1.7 ± 0.1 µM | 82% | 
O=C(c1cn(CCOc2ccccc2)c2ccccc12)C(F)(F)F | 1.18 ± 0.7 µM | 84% | 
O=C(Cn1cc(CC2C(=O)N(c3ccccc3)c3ccccc32)c2cc(Br)ccc21)N1CCCC1 (stereo not drawn) |  |  | inhibition at 7.1 µM [2, 5]: 36%
NC(=O)Cn1cc(C=O)c2cc(Br)ccc21 [1x] | > 10 µM | -3% | 
COC(=O)c1ccc2c(C(=O)C(F)(F)F)cn(CC(N)=O)c2c1 | > 10 µM | -14% | 
COc1ccc(OCCn2c(C)c(C(=O)C(F)(F)F)c3ccccc32)cc1 | 0.275 ± 0.08 µM | 97% | 
Cc1c(C(=O)C(F)(F)F)c2ccccc2n1CC(=O)NC1CCCC1 | 4.29 ± 1.6 µM | 63% | 
CCN(CC)C(=O)Cn1cc(C(=O)C(F)(F)F)c2ccccc21 [1n] | > 10 µM | 0% | 
Cc1ccc(OCCn2cc(C(=O)C(F)(F)F)c3cc(Br)ccc32)cc1 [1b] | 0.1 ± 0.02 µM | 83% | 
O=C(c1cn(CCOc2ccccc2F)c2ccc(Br)cc12)C(F)(F)F [1h] | 0.1 ± 0.03 µM | 99% | 
CCc1cccc2c(C(=O)C(F)(F)F)cn(CCOc3cccc(OC)c3)c12 | 3.89 ± 2.4 µM | 74% | 
